In patent US8304547B2, “Azolecarboxamide compound or salt thereof” (Astellas Pharma Inc., priority 2007, dated 2012):
Where a name gives a salt, the structure may show the parent alone.

Experiments:
human trkA receptor = target: T1, human trkA receptor (Homo sapiens, UniProt P04629); test: trkA receptor inhibitory activity using a cell expressing a nerve growth factor receptor (NGF-dependent increase of calcium concentration in cells, FLIPR); type: cell-based; settings: HEK293 cells stably expressing human trkA receptor; NGF-stimulated change in Ca concentration in cells
T1 construct: expressed in transfected cells
Description: Experiment to Measure trkA Receptor Inhibitory Activity Using a Cell Expressing a Nerve Growth Factor Receptor (trkA Receptor)
The trkA receptor inhibitory activity was measured by using the increase in a ligand-dependent calcium concentration in cells as an index. HEK293 cells (American Type Culture Collection) that stably expressed a human trkA receptor were dispensed onto a 96-well poly-D-lysine-coated plate (Product Name: Biocoat, PDL96W black/clear, by Nippon Becton Dickinson) to a 2×10^4 cells/well on the day before the experiment, and incubated overnight at 37° C. under 5% carbon dioxide (CO2) in a culture medium containing 10% fetal bovine serum (FBS) (Product Name: DMEM, Invitrogen Corporation). The culture medium was replaced by a loading buffer (a washing solution containing a 1.5 μM fluorescent-labelled indicator (Product Name: Fluo4-AM, Tong Ren Tang Technologies Co. Ltd.): a Hank's balanced salt solution (HBSS), 20 mM 2-[4-(2-hydroxyethyl)-1-piperazinyl]ethanesulfonic acid (HEPES)-sodium hydroxide (NaOH), 2.5 mM Probenecid, and 0.1% bovine serum albumin (BSA)), and left to stand at room temperature for 3 hours, and the cells were washed using a plate washer (Product Name: ELx405, BIO-TEK instrument Corporation) in which a washing solution had been set up. The compound that had been preliminarily dissolved and diluted in a washing solution was added thereto, and set up in a system for measuring a calcium (Ca) concentration in a cell (Product Name: FLIPR, Molecular Devices Corporation). After 5 minutes, a nerve growth factor (NGF, mouse derived 2.5S, Alomone) corresponding to 80% stimulation of a maximum response was added (to a final concentration of about 100 to 150 ng/ml) to measure the change in Ca concentrations in cells. The difference between a maximum value and a minimum value in the change of Ca concentrations in cells was determined, and kept as measurement data. With a response upon addition of NGF being set at 0%, and a response upon addition of a buffer being set at 100%, the concentration causing 50% inhibition was determined as an IC50 value. In the table, Ex represents Example Compound No. as below (the same applies hereinafter). From the results of this test, it was confirmed that the representative compounds of the present invention as below have a trkA receptor inhibitory action.

[1] = tested on: enhanced vascular permeability caused by Rat NGF; test: Inhibitory activity on enhanced vascular permeability caused by Rat NGF (Evans blue); type: in vivo; settings: Wistar female rat, 10 mg/kg oral, NGF intracutaneously 60 minutes after administration; for inhibition in vivo at 10 mg/kg: 1 h, read-out: Inhibitory rate
Description: Evaluation of the Inhibitory Activity of the Compound on Enhanced Vascular Permeability Caused by Rat NGF
The in vivo NGF inhibitory activity of the compound was examined. A Wistar female rat (Japan SLC) was forced to be orally administered with the compound (0.5% methylcellulose solution) 10 mg/3 ml/kg or a solvent (0.5% methylcellulose solution) 3 ml/kg. Under ether anesthesia performed at 60 minutes after administration, physiological saline or 1 μg/ml NGF (NGF, mouse derived 2.5 S, Alomone) was intracutaneously administered to the back at 50 μl/site, and then immediately a 1% Evans blue solution (dissolved in physiological saline) was administered through the caudal vein at 3 ml/kg. At a time point of 10 minutes after administration, the skin on the back was taken, and shaken in formamide for 16 hours. After shaking, an absorbance of Evans blue extracted in formamide was measured by an absorbance meter (wavelength: 620 nm), and the concentration was determined by a calibration curve method. A value obtained by subtracting the concentration of Evans blue at a site administered with physiological saline from the concentration of Evans blue at a site administered with NGF was determined as an NGF-dependent action, and an inhibitory rate of the compound group was determined with a group administered with a solvent being set at 100%. In this test, it was confirmed that the representative compounds as below of the present invention have an excellent inhibitory action on enhanced vascular permeability caused by Rat NGF.

[2] = tested on: rat having urinary frequency caused by cyclophosphamide (CPA); test: Action on a rat having urinary frequency caused by cyclophosphamide (CPA); type: in vivo; settings: CPA-treated Wistar female rat, value before administration = 100%
Description: Action of the Compound on a Rat Having Urinary Frequency Caused by Cyclophosphamide (CPA)
CPA (150 mg/5 ml/kg) was intraperitoneally administered to a Wistar female rat (Charles River Laboratories), and after 2 days, the experiment was carried out. It was forced to be orally administered with distilled water (30 ml/kg), and then confined in a metabolic cage, and urine weight and urination frequency were continuously measured for 1 hour. 3 or 10 mg/5 ml/kg of the compound (0.5% methylcellulose solution), or 5 ml/kg of a solvent (0.5% methylcellulose solution) was orally administered, and after 5 to 30 minutes, urination functions were measured after water-loading in the same manner as described above. A total urine weight was divided by the total urination frequency to determine an effective bladder capacity. With the value before administration of the compound being set at 100%, a rate of change in the effective bladder capacity caused by administration of the compound was determined.
In this test, at 2 days after CPA treatment, the effective bladder capacity had decreased (about 0.5 ml), indicating urinary frequency.

[3] = oral dose 10 mg/kg, evaluation period 5-65 minutes after administration
[4] = oral dose 10 mg/kg, evaluation period 15-75 minutes after administration

T1 sequence (P04629 33-796): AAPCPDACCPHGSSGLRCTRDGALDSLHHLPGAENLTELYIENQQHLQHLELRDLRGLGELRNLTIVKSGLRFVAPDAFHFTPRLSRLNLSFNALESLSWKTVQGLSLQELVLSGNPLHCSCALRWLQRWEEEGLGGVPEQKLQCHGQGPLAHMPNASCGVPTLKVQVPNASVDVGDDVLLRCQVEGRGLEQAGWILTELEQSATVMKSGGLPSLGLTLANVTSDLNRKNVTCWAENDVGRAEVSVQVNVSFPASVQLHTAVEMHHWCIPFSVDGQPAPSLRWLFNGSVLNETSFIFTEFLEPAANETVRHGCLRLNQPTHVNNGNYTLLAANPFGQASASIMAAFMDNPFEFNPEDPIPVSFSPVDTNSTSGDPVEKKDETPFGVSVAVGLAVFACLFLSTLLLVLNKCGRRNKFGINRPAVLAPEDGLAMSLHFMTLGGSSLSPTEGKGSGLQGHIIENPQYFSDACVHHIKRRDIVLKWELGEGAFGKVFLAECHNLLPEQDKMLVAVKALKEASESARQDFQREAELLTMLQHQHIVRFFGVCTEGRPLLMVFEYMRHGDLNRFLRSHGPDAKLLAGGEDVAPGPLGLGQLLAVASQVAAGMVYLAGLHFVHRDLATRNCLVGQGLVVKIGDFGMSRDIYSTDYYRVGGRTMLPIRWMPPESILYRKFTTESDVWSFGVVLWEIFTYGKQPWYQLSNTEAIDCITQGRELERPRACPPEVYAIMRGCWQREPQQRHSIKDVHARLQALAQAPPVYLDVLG

Compound	IC50 (human trkA receptor)	inhibition in vivo at 10 mg/kg [1]	other results
CCOC1CCN(c2nc(C(=O)Nc3ccccc3C(=O)NC3CCOCC3)cs2)CC1 [Ex 28]	27 nM	92%	
COCCN(C)c1nc(C(=O)Nc2ccccc2C(=O)Nc2cccnc2)cs1 [Example 103]	2.9 nM	98%	Rate in cange of effective bladder capacity ([2]; oral dose 3 mg/kg, evaluation period 5-65 minutes after administration): 145%
COCCNC(=O)c1cc(CN2CCOCC2)ccc1NC(=O)c1csc(N2CCC(Oc3ncccn3)CC2)n1 [Example 564]	3.1 nM		Inhibitory rate [1]: 90%; Rate in cange of effective bladder capacity [2, 4]: 146%
O=C(Nc1ccncc1C(=O)NC1CCOCC1)c1csc(N2CCC(Oc3ncccn3)CC2)n1 [Example 602]	1.1 nM		Rate in cange of effective bladder capacity [2, 4]: 152%
CN(CC1CCOCC1)c1nc(C(=O)Nc2ccc(CN3CCOCC3)cc2C(=O)NC2CCOCC2)cs1 [Example 930]	6.8 nM		Inhibitory rate [1]: 86%; Rate in cange of effective bladder capacity [2, 4]: 170%
COCCNC(=O)c1cc(CN2CCO[C@@H](C)C2)ccc1NC(=O)c1csc(N2CC[C@H](OC)C2)n1 [Example 1181, N-(2-[(2-methoxyethyl)carbamoyl]-4-{[(2S)-2-methylmorpholin-4-yl]methyl}phenyl)-2-[(3S)-3-methoxypyrrolidin-1-yl]-1,3-thiazole-4-carboxamide fumarate]	12 nM	81%	
COCCNC(=O)c1cc(CN2CCOCC2)ccc1NC(=O)c1csc(N2CC(OC)C2)n1 [Example 1435]	36 nM	71%	
CCOCc1ccc(NC(=O)c2csc(N3CC[C@H](OC)C3)n2)c(C(=O)NCCOC)c1 [Example 1449]	8.8 nM	76%	
COCCNC(=O)c1cc(CN2CCOCC2)ccc1NC(=O)c1csc(N(C)CCOC)n1 [Example 1469]	9.8 nM	90%	

Continued by falling IC50 (human trkA receptor), values first:

IC50 (human trkA receptor)	Compound	inhibition in vivo at 10 mg/kg [1]	other results
35 nM	COCCN(C)c1nc(C(=O)Nc2ccccc2C(=O)NC2CCOCC2)co1 [Example 361]	78%	Rate in cange of effective bladder capacity [2, 3]: 144%
25 nM	COC[C@@H](C)NC(=O)c1cc(CN2CCOCC2)ccc1NC(=O)c1csc(N2CC(OC)C2)n1 [Example 1439]	76%	
18 nM	COCCNC(=O)c1cc(CN2CCOCC2)ccc1NC(=O)c1csc(N2CC[C@H](F)C2)n1 [Example 1470]	76%	
9.9 nM	COCCNC(=O)c1cc(CN2CCOCC2(C)C)ccc1NC(=O)c1csc(N2CC[C@H](OC)C2)n1 [Example 1343]	87%	
6.9 nM	O=C(Nc1ccccc1C(=O)Nc1cccnc1)c1coc(N2CCOCC2)n1 [Ex 11]	69%	
6.8 nM	CO[C@H]1CCN(c2nc(C(=O)Nc3ccccc3C(=O)Nc3cccnc3)co2)C1 [Example 206]		Rate in cange of effective bladder capacity [2, 3]: 159%
5.4 nM	O=C(Nc1ccc(CO)cc1Cl)c1csc(N2CCC(Oc3ncccn3)CC2)n1 [Ex 3]		
4.2 nM	Nc1cc(-c2nc(C(=O)Nc3ccccc3C(=O)Nc3cccnc3)co2)ccn1 [Example 220]		
2.1 nM	O=C(Nc1ccccc1S(=O)(=O)C(F)F)c1csc(N2CCC(Oc3ncccn3)CC2)n1 [Example 611]		
1.7 nM	CC(=O)c1cc(C2(C#N)CC2)ccc1NC(=O)c1csc(N2CCC(Oc3ncccn3)CC2)n1 [Example 628]		
0.57 nM	CN(CC1CCOCC1)c1nc(C(=O)Nc2ccccc2C(=O)Nc2cccnc2)cs1 [Ex 30]	90%	
